{"source": "PubChem BioAssay AID2060891", "about": "(Molecular Pharmacology Branch, DTP, NCI, 2025)", "test_system": "K98450-129-R-PDC complex spheroid growth, percent test/control", "assay": "Anticancer human tumor K98450-129-R-PDC patient-derived colon adenocarcinoma cell line growth inhibition [RAS]", "details": "for pIC50: curve of first compound; for viability, T/C: stronger effect = lower value", "in_short": "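Tumour cells grown as complex spheroids with HUVEC endothelial cells and mesenchymal stem cells, treated with RAS pathway inhibitor combinations. Each agent spans half-log steps from near clinical Cmax, or 10 microM where Cmax is unknown.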", "key": {"[1]": {"details": "second compound 0.00316 µM, first compound 0.0316 µM"}, "[2]": {"details": "second compound 0.00316 µM, first compound 0.1 µM"}, "[3]": {"details": "second compound 0.00316 µM, first compound 0.316 µM"}, "[4]": {"details": "second compound 0.00316 µM, first compound 1 µM"}, "[5]": {"details": "second compound 0.00316 µM, first compound 3.16 µM"}, "[6]": {"details": "second compound 0.00316 µM, first compound 10 µM"}, "[7]": {"details": "second compound 0.01 µM, first compound 0.0316 µM"}, "[8]": {"details": "second compound 0.01 µM, first compound 0.1 µM"}, "[9]": {"details": "second compound 0.01 µM, first compound 0.316 µM"}, "[10]": {"details": "second compound 0.01 µM, first compound 1 µM"}, "[11]": {"details": "second compound 0.01 µM, first compound 3.16 µM"}, "[12]": {"details": "second compound 0.01 µM, first compound 10 µM"}, "[13]": {"details": "second compound 0.0316 µM, first compound 0.0316 µM"}, "[14]": {"details": "second compound 0.0316 µM, first compound 0.1 µM"}, "[15]": {"details": "second compound 0.0316 µM, first compound 0.316 µM"}, "[16]": {"details": "second compound 0.0316 µM, first compound 1 µM"}, "[17]": {"details": "second compound 0.0316 µM, first compound 3.16 µM"}, "[18]": {"details": "second compound 0.0316 µM, first compound 10 µM"}, "[19]": {"details": "second compound 0.1 µM, first compound 0.0316 µM"}, "[20]": {"details": "second compound 0.1 µM, first compound 0.1 µM"}, "[21]": {"details": "second compound 0.1 µM, first compound 0.316 µM"}, "[22]": {"details": "second compound 0.1 µM, first compound 1 µM"}, "[23]": {"details": "second compound 0.1 µM, first compound 3.16 µM"}, "[24]": {"details": "second compound 0.1 µM, first compound 10 µM"}, "[25]": {"details": "second compound 0.316 µM, first compound 0.0316 µM"}, "[26]": {"details": "second compound 0.316 µM, first compound 0.1 µM"}, "[27]": {"details": "second compound 0.316 µM, first compound 0.316 µM"}, "[28]": {"details": "second compound 0.316 µM, first compound 1 µM"}, "[29]": {"details": "second compound 0.316 µM, first compound 3.16 µM"}, "[30]": {"details": "second compound 0.316 µM, first compound 10 µM"}, "[31]": {"details": "second compound 1 µM, first compound 0.0316 µM"}, "[32]": {"details": "second compound 1 µM, first compound 0.1 µM"}, "[33]": {"details": "second compound 1 µM, first compound 0.316 µM"}, "[34]": {"details": "second compound 1 µM, first compound 1 µM"}, "[35]": {"details": "second compound 1 µM, first compound 3.16 µM"}, "[36]": {"details": "second compound 1 µM, first compound 10 µM"}}, "note": "pIC50: −log10 of the molar value."}
{"compound": "CC1(O)CCCC1n1c(=O)c(C(F)F)cc2cnc(NC3CCN(S(C)(=O)=O)CC3)nc21", "note": "(centres undefined) + C=CC(=O)N1CCN(c2nc(OCC3CCCN3C)nc3c(F)c(-c4nc(N)cc(C)c4C(F)(F)F)c(Cl)cc23)C(C)C1;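 also: spheroids exposed to agents for seven days before the viability readout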;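 as to viability, T/C: luminescence used as a proxy for viable cell amount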", "values": [{"measurement": "pIC50", "setting": "second compound 0.00316 µM", "result": 5.08}, {"measurement": "pIC50", "setting": "second compound 0.01 µM", "result": 5.56}, {"measurement": "pIC50", "setting": "second compound 0.0316 µM", "result": 6.16}, {"measurement": "pIC50", "setting": "second compound 0.1 µM", "result": 6.64}, {"measurement": "pIC50", "setting": "second compound 0.316 µM", "result": "> 7.50"}, {"measurement": "pIC50", "setting": "second compound 1 µM", "result": "> 7.50"}, {"measurement": "viability, T/C", "setting": "[1]", "result": 97.1, "unit": "%"}, {"measurement": "viability, T/C", "setting": "[2]", "result": 90.5, "unit": "%"}, {"measurement": "viability, T/C", "setting": "[3]", "result": 80.8, "unit": "%"}, {"measurement": "viability, T/C", "setting": "[4]", "result": 71.1, "unit": "%"}, {"measurement": "viability, T/C", "setting": "[5]", "result": 56.2, "unit": "%"}, {"measurement": "viability, T/C", "setting": "[6]", "result": 49.1, "unit": "%"}, {"measurement": "viability, T/C", "setting": "[7]", "result": 86.1, "unit": "%"}, {"measurement": "viability, T/C", "setting": "[8]", "result": 81.3, "unit": "%"}, {"measurement": "viability, T/C", "setting": "[9]", "result": 71.2, "unit": "%"}, {"measurement": "viability, T/C", "setting": "[10]", "result": 65.5, "unit": "%"}, {"measurement": "viability, T/C", "setting": "[11]", "result": 45, "unit": "%"}, {"measurement": "viability, T/C", "setting": "[12]", "result": 41.2, "unit": "%"}, {"measurement": "viability, T/C", "setting": "[13]", "result": 74.9, "unit": "%"}, {"measurement": "viability, T/C", "setting": "[14]", "result": 70.2, "unit": "%"}, {"measurement": "viability, T/C", "setting": "[15]", "result": 57.9, "unit": "%"}, {"measurement": "viability, T/C", "setting": "[16]", "result": 47.5, "unit": "%"}, {"measurement": "viability, T/C", "setting": "[17]", "result": 34.4, "unit": "%"}, {"measurement": "viability, T/C", "setting": "[18]", "result": 32, "unit": "%"}, {"measurement": "viability, T/C", "setting": "[19]", "result": 55.9, "unit": "%"}, {"measurement": "viability, T/C", "setting": "[20]", "result": 55.6, "unit": "%"}, {"measurement": "viability, T/C", "setting": "[21]", "result": 48.2, "unit": "%"}, {"measurement": "viability, T/C", "setting": "[22]", "result": 34, "unit": "%"}, {"measurement": "viability, T/C", "setting": "[23]", "result": 26.9, "unit": "%"}, {"measurement": "viability, T/C", "setting": "[24]", "result": 22, "unit": "%"}, {"measurement": "viability, T/C", "setting": "[25]", "result": 45.2, "unit": "%"}, {"measurement": "viability, T/C", "setting": "[26]", "result": 42.1, "unit": "%"}, {"measurement": "viability, T/C", "setting": "[27]", "result": 33, "unit": "%"}, {"measurement": "viability, T/C", "setting": "[28]", "result": 27.6, "unit": "%"}, {"measurement": "viability, T/C", "setting": "[29]", "result": 21.7, "unit": "%"}, {"measurement": "viability, T/C", "setting": "[30]", "result": 18.9, "unit": "%"}, {"measurement": "viability, T/C", "setting": "[31]", "result": 31.7, "unit": "%"}, {"measurement": "viability, T/C", "setting": "[32]", "result": 33.7, "unit": "%"}, {"measurement": "viability, T/C", "setting": "[33]", "result": 26.6, "unit": "%"}, {"measurement": "viability, T/C", "setting": "[34]", "result": 21, "unit": "%"}, {"measurement": "viability, T/C", "setting": "[35]", "result": 19.4, "unit": "%"}, {"measurement": "viability, T/C", "setting": "[36]", "result": 16.1, "unit": "%"}]}
{"compound": "CCC(CC)c1cc(NC2CCC(N)C2)n2nccc2n1", "note": "(centres undefined) + C=CC(=O)N1CCN(c2nc(OCC3CCCN3C)nc3c(F)c(-c4nc(N)cc(C)c4C(F)(F)F)c(Cl)cc23)C(C)C1", "values": [{"measurement": "pIC50", "setting": "second compound 0.00316 µM", "result": 5.29}, {"measurement": "pIC50", "setting": "second compound 0.01 µM", "result": 5.34}, {"measurement": "pIC50", "setting": "second compound 0.0316 µM", "result": 5.56}, {"measurement": "pIC50", "setting": "second compound 0.1 µM", "result": 5.93}, {"measurement": "pIC50", "setting": "second compound 0.316 µM", "result": "> 7.50"}, {"measurement": "pIC50", "setting": "second compound 1 µM", "result": "> 7.50"}, {"measurement": "viability, T/C", "setting": "[1]", "result": 97.6, "unit": "%"}, {"measurement": "viability, T/C", "setting": "[2]", "result": 93.8, "unit": "%"}, {"measurement": "viability, T/C", "setting": "[3]", "result": 91.5, "unit": "%"}, {"measurement": "viability, T/C", "setting": "[4]", "result": 87.3, "unit": "%"}, {"measurement": "viability, T/C", "setting": "[5]", "result": 78.2, "unit": "%"}, {"measurement": "viability, T/C", "setting": "[6]", "result": 13.5, "unit": "%"}, {"measurement": "viability, T/C", "setting": "[7]", "result": 88.2, "unit": "%"}, {"measurement": "viability, T/C", "setting": "[8]", "result": 86.8, "unit": "%"}, {"measurement": "viability, T/C", "setting": "[9]", "result": 84.6, "unit": "%"}, {"measurement": "viability, T/C", "setting": "[10]", "result": 85.8, "unit": "%"}, {"measurement": "viability, T/C", "setting": "[11]", "result": 66.2, "unit": "%"}, {"measurement": "viability, T/C", "setting": "[12]", "result": 15.1, "unit": "%"}, {"measurement": "viability, T/C", "setting": "[13]", "result": 78.6, "unit": "%"}, {"measurement": "viability, T/C", "setting": "[14]", "result": 73.3, "unit": "%"}, {"measurement": "viability, T/C", "setting": "[15]", "result": 73.1, "unit": "%"}, {"measurement": "viability, T/C", "setting": "[16]", "result": 60.4, "unit": "%"}, {"measurement": "viability, T/C", "setting": "[17]", "result": 51.3, "unit": "%"}, {"measurement": "viability, T/C", "setting": "[18]", "result": 8.93, "unit": "%"}, {"measurement": "viability, T/C", "setting": "[19]", "result": 48.2, "unit": "%"}, {"measurement": "viability, T/C", "setting": "[20]", "result": 55.4, "unit": "%"}, {"measurement": "viability, T/C", "setting": "[21]", "result": 51.9, "unit": "%"}, {"measurement": "viability, T/C", "setting": "[22]", "result": 54.3, "unit": "%"}, {"measurement": "viability, T/C", "setting": "[23]", "result": 34.1, "unit": "%"}, {"measurement": "viability, T/C", "setting": "[24]", "result": 8.77, "unit": "%"}, {"measurement": "viability, T/C", "setting": "[25]", "result": 38.4, "unit": "%"}, {"measurement": "viability, T/C", "setting": "[26]", "result": 38.9, "unit": "%"}, {"measurement": "viability, T/C", "setting": "[27]", "result": 41, "unit": "%"}, {"measurement": "viability, T/C", "setting": "[28]", "result": 37.3, "unit": "%"}, {"measurement": "viability, T/C", "setting": "[29]", "result": 16.4, "unit": "%"}, {"measurement": "viability, T/C", "setting": "[30]", "result": 7.47, "unit": "%"}, {"measurement": "viability, T/C", "setting": "[31]", "result": 32, "unit": "%"}, {"measurement": "viability, T/C", "setting": "[32]", "result": 31.9, "unit": "%"}, {"measurement": "viability, T/C", "setting": "[33]", "result": 33.3, "unit": "%"}, {"measurement": "viability, T/C", "setting": "[34]", "result": 25.3, "unit": "%"}, {"measurement": "viability, T/C", "setting": "[35]", "result": 11.1, "unit": "%"}, {"measurement": "viability, T/C", "setting": "[36]", "result": 8.2, "unit": "%"}]}
